Columns and labels:
human TLR7 = biological target: T1, human TLR7 (Homo sapiens, UniProt Q9NYK1); assay: HEK Reporter Assay, HEK293 reporter cells expressing human TLR7; assay type: cell-based; settings: HEK293 NFKB reporter cells expressing human TLR7; read-out: HEK293 hTLR7 EC50
T1 construct: host or cells: HEK293 NF-kB reporter cells
T1 sequence (Q9NYK1 27-1049): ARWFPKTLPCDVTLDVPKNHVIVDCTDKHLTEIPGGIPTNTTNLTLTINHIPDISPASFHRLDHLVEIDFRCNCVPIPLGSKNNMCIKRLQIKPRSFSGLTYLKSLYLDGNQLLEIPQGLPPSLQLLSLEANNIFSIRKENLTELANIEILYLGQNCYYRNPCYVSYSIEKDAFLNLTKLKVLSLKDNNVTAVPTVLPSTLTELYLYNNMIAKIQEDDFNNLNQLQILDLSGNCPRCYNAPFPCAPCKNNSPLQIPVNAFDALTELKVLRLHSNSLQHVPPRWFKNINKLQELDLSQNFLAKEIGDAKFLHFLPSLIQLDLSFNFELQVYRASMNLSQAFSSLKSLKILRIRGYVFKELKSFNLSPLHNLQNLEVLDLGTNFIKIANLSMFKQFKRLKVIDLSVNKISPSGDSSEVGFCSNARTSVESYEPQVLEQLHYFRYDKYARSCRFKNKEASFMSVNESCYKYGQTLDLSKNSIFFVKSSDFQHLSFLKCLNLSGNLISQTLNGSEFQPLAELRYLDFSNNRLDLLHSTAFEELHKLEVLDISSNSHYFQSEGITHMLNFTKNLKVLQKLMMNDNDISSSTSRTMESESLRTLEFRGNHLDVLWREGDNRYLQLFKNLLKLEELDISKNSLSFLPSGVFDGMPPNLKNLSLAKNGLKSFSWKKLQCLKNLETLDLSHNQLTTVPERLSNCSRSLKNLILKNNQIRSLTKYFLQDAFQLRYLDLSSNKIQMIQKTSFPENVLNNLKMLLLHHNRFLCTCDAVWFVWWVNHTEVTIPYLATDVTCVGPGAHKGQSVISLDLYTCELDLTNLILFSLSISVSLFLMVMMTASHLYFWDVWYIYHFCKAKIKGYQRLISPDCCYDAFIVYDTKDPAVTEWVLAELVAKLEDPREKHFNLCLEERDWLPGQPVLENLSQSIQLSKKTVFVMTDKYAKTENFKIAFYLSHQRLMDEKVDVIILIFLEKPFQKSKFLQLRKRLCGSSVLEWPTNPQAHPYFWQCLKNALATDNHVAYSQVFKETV
Experimental: (§1) Each compound was synthesized, purified, and characterized by mass spectrometry and shown to have the mass indicated. Additional experimental procedures are found in the Examples. Activity against HEK293 NFKB reporter cells expressing human TLR7 or human TLR8 was measured according to Example 202.
(§2) Example 202 HEK Reporter Assay
(§3) HEK293 reporter cells expressing human TLR7 or human TLR8 were purchased from Invivogen and vendor protocols were followed for cellular propagation and experimentation. Briefly, cells were grown to 80-85% confluence at 5% CO2 in DMEM supplemented with 10% FBS, Zeocin, and Blasticidin. Cells were then seeded in 96-well flat plates at 4×10^4 cells/well with substrate containing HEK detection medium and immunostimulatory molecules.

human TLR8 = biological target: T2, human TLR8 (Homo sapiens, UniProt Q9NR97); assay: HEK Reporter Assay, HEK293 reporter cells expressing human TLR8; assay type: cell-based; settings: HEK293 NFKB reporter cells expressing human TLR8; read-out: HEK293 hTLR8 EC50
T2 construct: host or cells: HEK293 NF-kB reporter cells
T2 sequence (Q9NR97 27-1041): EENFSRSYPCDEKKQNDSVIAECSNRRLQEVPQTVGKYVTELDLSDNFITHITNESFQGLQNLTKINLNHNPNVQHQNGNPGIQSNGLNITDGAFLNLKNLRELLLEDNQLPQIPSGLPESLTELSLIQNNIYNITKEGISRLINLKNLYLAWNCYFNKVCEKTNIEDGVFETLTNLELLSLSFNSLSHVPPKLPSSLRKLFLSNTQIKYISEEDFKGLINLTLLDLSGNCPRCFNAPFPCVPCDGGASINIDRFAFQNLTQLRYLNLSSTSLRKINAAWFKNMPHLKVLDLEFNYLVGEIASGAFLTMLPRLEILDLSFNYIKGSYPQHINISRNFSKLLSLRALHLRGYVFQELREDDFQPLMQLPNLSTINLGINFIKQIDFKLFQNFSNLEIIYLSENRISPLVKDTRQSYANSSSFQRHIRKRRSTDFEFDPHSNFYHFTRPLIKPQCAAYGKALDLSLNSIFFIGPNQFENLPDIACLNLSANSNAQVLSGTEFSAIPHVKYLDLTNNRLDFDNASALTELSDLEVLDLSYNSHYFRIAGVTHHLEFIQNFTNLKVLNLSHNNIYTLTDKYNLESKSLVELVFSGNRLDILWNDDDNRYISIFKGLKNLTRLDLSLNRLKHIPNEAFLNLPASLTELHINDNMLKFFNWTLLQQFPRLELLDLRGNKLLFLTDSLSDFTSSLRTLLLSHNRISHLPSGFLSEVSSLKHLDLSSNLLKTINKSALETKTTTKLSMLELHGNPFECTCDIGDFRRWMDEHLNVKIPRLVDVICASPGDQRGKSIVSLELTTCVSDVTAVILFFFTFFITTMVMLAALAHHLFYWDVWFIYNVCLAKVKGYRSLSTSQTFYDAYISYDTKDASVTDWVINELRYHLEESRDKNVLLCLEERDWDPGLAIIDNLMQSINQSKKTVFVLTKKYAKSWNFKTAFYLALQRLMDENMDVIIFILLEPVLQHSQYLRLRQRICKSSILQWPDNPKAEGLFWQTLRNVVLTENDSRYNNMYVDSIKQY
Experimental: as §1, §2, §3

Row | EC50 (human TLR7) | EC50 (human TLR8) | SMILES
1 | 5140 nM | 1080 nM | CCCN(CCCCO)C(=O)C1=Cc2ccc(-c3cccc(S(=O)(=O)N4CC(CNC(=O)OC(C)(C)C)C4)c3)cc2N=C(N)C1 [PhBz-9]
2 | 3520 nM | 423 nM | CCCN(CCO)C(=O)C1=Cc2ccc(-c3cccc(S(=O)(=O)N4CC(CNC(=O)OC(C)(C)C)C4)c3)cc2N=C(N)C1 [PhBz-21]
3 |  | 822 nM | CCCN(OCCO)C(=O)C1=Cc2ccc(-c3cccc(S(=O)(=O)N4CC(CN)C4)c3)cc2N=C(N)C1 [PhBz-25]
